Test results taken from ChEMBL document CHEMBL4177538, “Recent progress in prodrug design strategies based on generally applicable modifications” (Bioorg Med Chem Lett, 2017).

Tests used:
[1] = test system: glucuronidase; assay: Half life in phosphate buffered saline at pH 7 in presence of glucuronidase at 37 degC; assay type: ADME
[2] = Half life in phosphate buffered saline at pH 7.4 at 37 degC; assay type: physicochemical

| half-life [2] [min] | Compound | half-life [1] [min] |
| --- | --- | --- |
| – | CC[C@@]1(O)C(=O)OCc2c1cc1n(c2=O)Cc2cc3cc(OCc4ccc(O[C@@H]5O[C@H](C(=O)O)[C@@H](O)[C@H](O)[C@H]5O)c([N+](=O)[O-])c4)ccc3nc2-1 | 20 |
| 12 | Cc1cccc(C)c1OCC(=O)N[C@@H](Cc1ccccc1)[C@H](OC(=O)CCC(=O)NCCN1CCCCC1)C(=O)N1CSC(C)(C)[C@H]1C(=O)NC(C)(C)C | – |
